In US20200031920A1, “Combination Therapy for Treating Cancer” (The George Washington University, priority 2017, published 2020):
Entries after “also recorded” stand apart in the source; their conditions may differ.

Key:
Type in all cases: cell-based
[1] = tested on: SKOV3 CR cells; test: cell viability / proliferation (SRB) assay, cisplatin resistant SKOV3 CR cells
Experimental: (§1) FIG. 1 is a line graph showing the proliferation of SKOV3 parental and SKOV3 CR cells treated with increasing concentrations of cisplatin for five days. Data are represented as mean±SD from three independent experiments performed in triplicate. Indicated IC50 values represent the mean of two independent experiments performed in triplicate.
(§2) FIG. 13 is a line graph showing the proliferation of SKOV3 parental and SKOV3 CR cells treated with increasing concentrations of cisplatin and 0.4 μM LY2784544 for five days. Data are represented as mean±SD from three independent experiments performed in triplicate.
(§3) Cisplatin resistant ovarian cancer cell lines were generated using procedures as described previously. Jazaeri et al., Mol Cancer Ther 12: 1958-1967 (2013). Ovarian cancer cells SKOV3 were cultured in the medium with cisplatin (Sigma-Aldrich) for three weeks, followed by release to cisplatin-free medium for another three weeks. In the next cycle, the cisplatin treatment was repeated in the medium with an increased concentration of cisplatin. After six-cycle treatment, cells were identified that were able to grow in the medium with a high concentration of cisplatin. These cisplatin resistant cells were named as SKOV3 CR (FIG. 1).
(§4) The results obtained from combinational HTS were confirmed by testing whether LY2784544 overcomes cisplatin resistance in ovarian cancer cells using multiple assays. […] The Combination index (CI), which quantitatively describes the interaction between drugs including synergism (CI<1), additive effect (CI=1), and antagonism (CI>1), was calculated.

[2] = tested on: PEO4 cells; test: cell proliferation assay, PEO4 cells
Excerpt: as §1, with “63” for “1”, “PEO1” for “SKOV3 parental”, “PEO4” for “SKOV3 CR”, “5” for “five”
FIG. 64 is a bar graph showing the synergistic effects of LY2784544 and cisplatin in PEO4 cells. CI values are presented above the bars. CI<1 indicates synergism, CI=1 indicates additive effect, and CI>1 indicates antagonism.
For ovarian cancer, recurrence more than 12 months after initial chemotherapy was considered as platinum sensitive. PEO4 was derived from the patient 10 months later when they had progressive disease and had become cisplatin resistant.

[3] = tested on: phosphorylation of JAK2 (Y1007/1008) and STAT5 (Y694); test: western blot of JAK2/STAT5 signaling
Experimental: FIG. 22 is an illustration showing that LY2784544 down-regulates JAK2/STAT5 signaling in SKOV3 CR cells. Cells were treated with the indicated concentrations of LY2784544 for 48 hr.
FIG. 23 is an illustration showing the immunoblotting for the indicated targets in SKOV3 CR cells treated with vehicle (DMSO), 3 μM LY2784544, 5 μM cisplatin, or the combination for 48 hr.
To investigate the molecular mechanism by which the JAK2-mediated pathway regulates cisplatin resistance of ovarian cancer, the activation of the JAK2-mediated pathway in paired sensitive cell line (SKOV3, IGROV1, PEO1) and resistant cell lines (SKOV3 CR, IGROV1 CR, PEO4) was examined by western blot. Compared to cisplatin sensitive cells SKOV3 or IGROV1, the JAK2 protein levels are not changed in cisplatin resistant cells SKOV3 CR, IGROV1 CR, or PEO4.
The effects of LY2784544 on the JAK2/STAT5 signaling pathway in both SKOV3 and SKOV3 CR cells were examined.

[4] = tested on: SKOV3 CR cells; test: apoptosis (Annexin V and Propidium Iodide staining, cleaved PARP)
Experimental: FIG. 2 is an illustration showing representative flow plots (A) and a bar graph (B) of SKOV3 and SKOV3 CR cells treated with cisplatin for 48 h and analyzed for Annexin V and Propidium Iodide staining by flow cytometry (A) and quantified apoptosis percentage (B). Data are represented as mean±SD from three independent experiments performed in triplicate. **p<0.01. FIG. 23 is an illustration showing the immunoblotting for the indicated targets in SKOV3 CR cells treated with vehicle (DMSO), 3 μM LY2784544, 5 μM cisplatin, or the combination for 48 hr. FIG. 24 is an illustration showing representative flow plots of SKOV3 CR cells treated with vehicle, 3 μM LY2784544, 5 μM cisplatin, or the combination (combo) for 48 hr and analyzed for Annexin V and Propidium Iodide staining by flow cytometry. Since cisplatin exerts its anticancer effect mainly through its ability to cause DNA damage, resulting in apoptosis, the apoptotic cells in both SKOV3 and SKOV CR cells were measured using Annexin V and Propidium Iodide staining. […] To test whether SKOV3 CR cells are resistant to cisplatin-induced apoptosis in vivo, both SKOV3 and SKOV3 CR cells were injected into nude mice to form xenograft tumors. Once the tumor size reached 100-150 mm^3, cisplatin was given to mice by intraperitoneal injections twice a week for 2 weeks. Three days after treatment, the apoptosis in tumors was examined by TUNEL staining. […] Currently, carboplatin is a more commonly used platinum drug employed clinically to treat ovarian patients. Ozols et al., J Clin Oncol 21: 3194-3200 (2003). Thus, it was tested whether SKOV3 CR cells are also resistant to carboplatin (Sigma-Aldrich). The effects of LY2784544 on the JAK2/STAT5 signaling pathway in both SKOV3 and SKOV3 CR cells were examined.

[5] = tested on: SKOV3 cells; test: cell viability / proliferation (SRB) assay, SKOV3 parental cells
Experimental: as §1, §2, §3, §4

[6] = tested on: IGROV1 CR cells; test: cell proliferation assay, cisplatin resistant IGROV1 CR cells
Excerpt: as §1, with “60” for “1”, “IGROV1” for “SKOV3”, “5 days (left).” for “five days.”
FIG. 61 is a bar graph showing the synergistic effects of LY2784544 and cisplatin in IGROV1 CR cells (right). CI values are presented above the bars. CI<1 indicates synergism, […] indicates additive effect, and CI>1 indicates antagonism.
Using a similar approach as described in FIG. 1, another cisplatin resistant ovarian cancer cell line IGROV1 CR was raised from its cisplatin sensitive parental cell IGROV1 cells. […] The cell proliferation of IGROV1 CR cells treated with cisplatin, LY2784544 or both LY2784544 and cisplatin was examined.

[7] = SKOV3 CR cells, 3 μM LY2784544 plus 5 μM cisplatin, 48 hr

SMILES | cisplatin IC50 shift ability (comparison of the three hits) ([1]; SKOV3 CR cells) | sensitization of SKOV3 CR cells to cisplatin (proliferation) ([1]; combination with cisplatin at different doses, FIG. 13: 0.4 μM LY2784544, five days) | medium CI (combination index) ([1]; combination with cisplatin, SKOV3 CR cells, CI<1 synergism) | medium CI (combination index) ([2]; combination with cisplatin, PEO4 cells) | phosphorylation of JAK2 and STAT5 ([3]; both SKOV3 and SKOV3 CR cells, 48 hr) | apoptosis (cleaved PARP), single agent ([4]; SKOV3 CR cells, 3 μM LY2784544, 48 hr) | apoptosis (cleaved PARP), combination with cisplatin [4, 7] | apoptotic cells (Annexin V and Propidium Iodide), combination with cisplatin [4, 7] | medium CI (combination index) ([5]; combination with cisplatin, SKOV3 cells, CI<1 synergism) | effect on cell proliferation of SKOV3 ([5]; medium with cisplatin or without cisplatin) | medium CI (combination index) ([6]; combination with cisplatin, IGROV1 CR cells) | IC50 ([1]; SKOV3 CR cells, 5 days) | fold increase of IC50, PEO4 vs PEO1 ([2]; 5 days) | IC50 ([2]; PEO4 cells, 5 days) | JAK2/STAT5 signaling after cisplatin treatment ([3]; SKOV3 parental cells, various small doses and times of cisplatin) | apoptosis, SKOV3 versus SKOV3 CR cells ([4]; cisplatin for 48 h, Annexin V and Propidium Iodide staining) | IC50 ([5]; SKOV3 parental cells, 5 days) | fold increase of IC50, IGROV1 CR vs parental IGROV1 ([6]; 5 days) | IC50 ([6]; IGROV1 CR cells, 5 days)
Cc1cc(Nc2cc(CN3CCOCC3)c3nc(C)c(Cc4ccc(Cl)cc4F)n3n2)n[nH]1 [LY2784544] | better cisplatin IC50 shift ability than MLN4924 or NSC319726 | significantly increased the sensitivity of SKOV3 CR cells to cisplatin; also recorded: re-sensitized SKOV3 CR cells to cisplatin | 0.69 | 0.34 | significantly reduced the phosphorylation of JAK2 as well as the phosphorylation of STAT5 | did not cause apoptosis | induced apoptotic cell death | significant increase of apoptotic cells | 0.93 | did not affect the cell proliferation of SKOV3 | 0.71 |  |  |  |  |  |  |  | 
N.N.[Cl][Pt][Cl] [cisplatin] |  |  |  |  |  |  |  |  |  |  |  | 10400 nM | 6.2 fold | 1990 nM | JAK2/STAT5 signaling was activated | induced more apoptosis in SKOV3 cells than in SKOV3 CR cells | 2000 nM | 2.9 fold | 1500 nM
